In ChEMBL document CHEMBL1126597, “Irreversible inactivation of macrophage and brain nitric oxide synthase by L-NG-methylarginine requires NADPH-dependent hydroxylation” (J Med Chem, 1993):

Biological target: T1, Nitric oxide synthase, inducible (Mus musculus) (UniProt P29477)
T1 sequence (whole entry): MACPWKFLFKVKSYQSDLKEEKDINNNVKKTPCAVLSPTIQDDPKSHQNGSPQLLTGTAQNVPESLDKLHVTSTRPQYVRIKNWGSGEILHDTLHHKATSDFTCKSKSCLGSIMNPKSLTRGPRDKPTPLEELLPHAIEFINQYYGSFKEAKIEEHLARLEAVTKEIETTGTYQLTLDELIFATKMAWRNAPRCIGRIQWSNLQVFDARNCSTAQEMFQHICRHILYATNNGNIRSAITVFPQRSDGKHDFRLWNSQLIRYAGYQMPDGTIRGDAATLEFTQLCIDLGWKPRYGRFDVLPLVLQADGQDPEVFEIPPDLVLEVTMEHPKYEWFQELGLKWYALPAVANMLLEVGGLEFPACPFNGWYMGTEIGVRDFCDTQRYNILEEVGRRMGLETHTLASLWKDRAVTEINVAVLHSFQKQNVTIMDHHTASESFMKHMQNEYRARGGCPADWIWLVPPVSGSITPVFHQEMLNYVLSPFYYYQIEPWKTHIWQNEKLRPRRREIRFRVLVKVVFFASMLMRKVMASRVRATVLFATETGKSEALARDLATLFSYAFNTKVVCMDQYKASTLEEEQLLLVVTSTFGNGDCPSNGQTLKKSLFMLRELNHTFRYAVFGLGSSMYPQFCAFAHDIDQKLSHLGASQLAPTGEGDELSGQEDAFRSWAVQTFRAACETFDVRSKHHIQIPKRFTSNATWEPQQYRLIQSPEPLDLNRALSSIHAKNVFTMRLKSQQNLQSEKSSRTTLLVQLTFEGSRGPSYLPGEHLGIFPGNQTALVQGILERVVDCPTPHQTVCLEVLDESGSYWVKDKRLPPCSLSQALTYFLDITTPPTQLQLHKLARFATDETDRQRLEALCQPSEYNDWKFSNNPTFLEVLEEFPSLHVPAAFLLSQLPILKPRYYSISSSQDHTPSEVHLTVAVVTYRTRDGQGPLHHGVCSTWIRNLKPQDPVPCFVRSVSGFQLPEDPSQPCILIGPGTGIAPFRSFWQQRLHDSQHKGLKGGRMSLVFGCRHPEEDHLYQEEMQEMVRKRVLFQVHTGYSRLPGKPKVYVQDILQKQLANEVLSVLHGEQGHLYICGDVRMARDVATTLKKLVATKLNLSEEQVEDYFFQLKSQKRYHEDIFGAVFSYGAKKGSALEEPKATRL
Experiment: Inhibitory against murine macrophage nitric oxide synthase (mNOS) at 10 uM

Row | kinact [min⁻¹] | Structure (SMILES)
1 | 0.08 | CNC(=N)NCCC[C@H](N)C(=O)O
2 | 0.1 | CN(O)C(=N)NCCCC(N)C(=O)O (configuration not stated)
